The values below come from US8349883B2, “Hydroxamate-based inhibitors of deacetylases B” (Novartis AG, priority 2008, dated 2013).

One experiment has as its target T1, HDAC-1 (Homo sapiens, UniProt Q13547).
T1 construct: made in house; host or cells: Sf9 or Sf21 insect cells (baculovirus, donor vector pFB-GSTX3)
The experiment in a line: HDAC inhibition assay (purified GST-HDAC protein). The experiment is classed as biochemical. From the text:
The baculovirus donor vector pFB-GSTX3 was used to generate a recombinant baculovirus that can express the HDAC polypeptide. Transfer vectors containing the HDAC coding region were transfected into the DH10Bac cell line (GIBCO) and plated on selective agar plates. Colonies without insertion of the fusion sequence into the viral genome (carried by the bacteria) were blue. Single, white colonies were picked and viral DNAs (bacmid) were isolated from the bacteria by standard plasmid purification procedures. Sf9 cells or Sf21 (American Type Culture Collection) cells were then transfected in […] flasks with the viral DNA using Cellfectin reagent.
Virus-containing media was collected from the transfected cell culture and used for infection to increase its titer. Virus-containing media obtained after two rounds of infection was used for large-scale protein expression. For large-scale protein expression 100 cm^2 round tissue culture plates were seeded with 5×10^7 cells/plate and infected with 1 mL of virus-containing media (at an approximately MOI of 5). After 3 days, the cells were scraped off the plate and centrifuged at 500 rpm for 5 minutes. Cell pellets from 10-20, 100 cm^2 plates, were re-suspended in 50 mL of ice-cold lysis buffer (25 mM tris-HCl, pH 7.5, 2 mM EDTA, 1% NP-40, 1 mM DTT, 1 mM P MSF). The cells were stirred on ice for 15 minutes and then centrifuged at 5,000 rpms for 20 minutes.
The centrifuged cell lysate was loaded onto a 2 mL glutathione-sepharose column (Pharmacia) and was washed thrice with 10 mL of 25 mM tris-HCl, pH 7.5, 2 mM EDTA, 1 mM DTT, 200 mM NaCl. The GST-tagged proteins were then eluted by 10 applications (1 mL each) of 25 mM tris-HCl, pH 7.5, 10 mM reduced-glutathione, 100 mM NaCl, 1 mM DTT, 10% glycerol and stored at −70° C.
HDAC assays with purified GST-HDAC protein were carried out in a final volume of 30 μL containing 15 ng of GST-HDAC protein, 20 mM tris-HCl, pH 7.5, 1 mM MnCl2, 10 mM MgCl2, 1 mM DTT, 3 μg/mL poly(Glu,Tyr) 4:1, 1% DMSO, 2.0 μM ATP (γ-[^33P]-ATP 0.1 μCi). The activity was assayed in the presence or absence of inhibitors. The assay was carried out in 96-well plates at ambient temperature for 15 minutes under conditions described below and terminated by the addition of 20 μL of 125 mM EDTA. Subsequently, 40 μL of the reaction mixture were transferred onto EMMOBILON-PVDF membrane (Millipore) previously soaked for 5 minutes with methanol, rinsed with water, then soaked for 5 minutes with 0.5% H3PO4 and mounted on vacuum manifold with disconnected vacuum source. After spotting all samples, a vacuum was connected and each well rinsed with 200 μL 0.5% H3PO4. Membranes were removed and washed four times on a shaker with 1.0% H3PO4, once with ethanol. Membranes were counted after drying at ambient temperature, mounting in Packard TopCount 96-well frame, and addition of 10 μL/well of MICROSCINT™ (Packard). IC50 values were calculated by linear regression analysis of the percentage inhibition of each compound in duplicate, at 4 concentrations (usually 0.01, 0.1, 1 and 10 μM).
• Input: 3×4 μL stopped assay on IMMOBILON membrane, not washed • Background (3 wells): assay with H2O instead of enzyme • Positive control (4 wells): 3% DMSO instead of compound • Bath control (1 well): no reaction mix
IC50 values were calculated by logarithmic regression analysis of the percentage inhibition of each compound at 4 concentrations (usually 3- or 10-fold dilution series starting at 10 μM). In each experiment, the actual inhibition by reference compound was used for normalization of IC50 values to the basis of an average value of the reference inhibitor: Normalized IC50=measured IC50 average ref IC50/measured ref IC50
Example: Reference inhibitor in experiment 0.4 μM, average 0.3 μM, Test compound in experiment 1.0 μM, normalization: 0.3/0.4=0.75 μM
For example, known HDAC inhibitors or a synthetic derivative thereof may be used as reference compounds.

For a further experiment, the system named is HCT116. The experiment in a line: HCT116 IC50. The experiment is classed as cell-based. The note with it: Homo sapiens, HCT-116.

T1 sequence (Q13547 whole entry, species assumed): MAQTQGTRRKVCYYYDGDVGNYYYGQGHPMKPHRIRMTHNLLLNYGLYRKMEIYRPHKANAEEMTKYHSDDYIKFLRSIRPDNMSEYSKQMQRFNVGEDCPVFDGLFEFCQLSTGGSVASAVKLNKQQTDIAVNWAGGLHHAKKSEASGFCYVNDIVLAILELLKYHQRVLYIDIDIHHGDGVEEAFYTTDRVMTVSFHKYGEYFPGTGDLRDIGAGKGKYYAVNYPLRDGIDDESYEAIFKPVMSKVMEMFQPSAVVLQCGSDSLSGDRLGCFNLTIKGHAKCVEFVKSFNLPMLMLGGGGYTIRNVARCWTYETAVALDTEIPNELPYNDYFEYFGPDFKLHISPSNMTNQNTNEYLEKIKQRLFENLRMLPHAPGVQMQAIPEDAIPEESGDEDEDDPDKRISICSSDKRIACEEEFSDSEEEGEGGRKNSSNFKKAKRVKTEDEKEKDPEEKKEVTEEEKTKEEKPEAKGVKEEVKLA

Turning to `CC(C)(C)c1[nH]c2cc(NS(C)(=O)=O)ccc2c1CCN1CCCC1c1ccc(/C=C/C(=O)NO)cc1` (stereo not drawn) [Compound 10, (E)-3-(4-{1-[2-(2-tert-Butyl-6-methanesulfonylamino-1H-indol-3-yl)-ethyl]-pyrrolidin-2-yl}-phenyl)-N-hydroxy-acrylamide], the concentration for half-maximal inhibition (IC50) (usually the concentration needed to halve the response being measured) amounted to 3 nM on HDAC-1 and 2 nM in the experiment on HCT116.

As for `Cc1[nH]c2ccccc2c1CCN1CCCC1c1ccc(/C=C/C(=O)NO)cc1` (stereo not drawn) [Compound 1, (E)-N-Hydroxy-3-(4-{1-[2-(2-methyl-1H-indol-3-yl)-ethyl]-pyrrolidin-2-yl}-phenyl)-acrylamide], the half-maximal inhibitory concentration (IC50) on HDAC-1 was 3 nM; in the experiment with HCT116 it was 1 nM.

On to `Cc1ccn(CCN2CCC[C@H]2c2ccc(/C=C/C(=O)NO)cc2)n1` [Compound 71, (E)-N-Hydroxy-3-(4-{(S)-1-[2-(3-methyl-pyrazol-1-yl)-ethyl]-pyrrolidin-2-yl}-phenyl)-acrylamide], for which the values for the IC50 against HDAC-1 and in the experiment with HCT116 were 55 nM and 110 nM, respectively.

Take `CCc1n[nH]c(CC)c1CCN1CCC[C@H]1c1ccc(/C=C/C(=O)NO)cc1` [Compound 99, (E)-3-(4-{(S)-1-[2-(3,5-Diethyl-1H-pyrazol-4-yl)-ethyl]-pyrrolidin-2-yl}-phenyl)-N-hydroxy-acrylamide]: the IC50 against HDAC-1 amounted to 0.8 nM; with HCT116, 1.4 nM.

`Cc1nn(C(C)(C)C)c(C)c1CCN1CCC[C@H]1c1ccc(/C=C/C(=O)NO)cc1` [Compound 61, (E)-3-(4-{(S)-1-[2-(1-tert-Butyl-3,5-dimethyl-1H-pyrazol-4-yl)-ethyl]-pyrrolidin-2-yl}-phenyl)-N-hydroxy-acrylamide]: the half-inhibitory concentration (IC50) against HDAC-1 is 7 nM; in the experiment on HCT116, 8 nM.

On to `Cc1noc(-c2ccccc2)c1CCN1CCC[C@H]1c1ccc(/C=C/C(=O)NO)cc1` [Compound 56, (E)-N-Hydroxy-3-(4-{(S)-1-[2-(3-methyl-5-phenyl-isoxazol-4-yl)-ethyl]-pyrrolidin-2-yl}-phenyl)-acrylamide], for which the half-inhibitory concentration (IC50) stood at 1.7 nM against HDAC-1 and 5 nM with HCT116.

On to `CC(C)n1nnnc1CCN1CCC[C@H]1c1ccc(/C=C/C(=O)NO)cc1` [Compound 102, (E)-N-Hydroxy-3-(4-{(S)-1-[2-(1-isopropyl-1H-tetrazol-5-yl)-ethyl]-pyrrolidin-2-yl}-phenyl)-acrylamide], for which the IC50 was determined as 25 nM at HDAC-1 and 32 nM in the experiment with HCT116.

Consider `O=C(/C=C/c1ccc(C2CCCN2CCc2ccccc2)cc1)NO` (stereo not drawn) [Compound 19, (E)-N-Hydroxy-3-[4-(1-phenethyl-pyrrolidin-2-yl)-phenyl]-acrylamide], for which the values for the IC50 against HDAC-1 and in the experiment on HCT116 were 3 nM and 7 nM, respectively.

As to `C[Si](C)(C)Cn1cc(CCN2CCC[C@H]2c2ccc(/C=C/C(=O)NO)cc2)nn1` [Compound 77, (E)-N-Hydroxy-3-(4-{(S)-1-[2-(1-trimethylsilanylmethyl-1H-[1,2,3]triazol-4-yl)-ethyl]-pyrrolidin-2-yl}-phenyl)-acrylamide], the results for the IC50 on HDAC-1 and in the experiment with HCT116 were 25 nM and 110 nM, respectively.

`O=C(/C=C/c1ccc([C@@H]2CCCN2CCc2nnn(C3CCC3)n2)cc1)NO` [Compound 105, (E)-3-(4-{(S)-1-[2-(2-Cyclobutyl-2H-tetrazol-5-yl)-ethyl]-pyrrolidin-2-yl}-phenyl)-N-hydroxy-acrylamide]: the half-inhibitory concentration (IC50) stood at 120 nM against HDAC-1 and 160 nM in the experiment with HCT116.

In the case of `O=C(/C=C/c1ccc([C@@H]2CCCN2CCc2cnn3ccccc23)c(Cl)c1)NO` [Compound 92, (E)-3-{3-Chloro-4-[(S)-1-(2-pyrazolo[1,5-a]pyridin-3-yl-ethyl)-pyrrolidin-2-yl]-phenyl}-N-hydroxy-acrylamide], the IC50 was determined as 4 nM on HDAC-1 and 3 nM in the experiment on HCT116.

`O=C(/C=C/c1ccc([C@@H]2CCCN2CCC2CCCCC2)cc1)NO` [Compound 41, (E)-3-{4-[(S)-1-(2-Cyclohexyl-ethyl)-pyrrolidin-2-yl]-phenyl}-N-hydroxy-acrylamide]: the IC50 turned out to be 7 nM at HDAC-1 and 48 nM in the experiment with HCT116.
